Data as given in patent US8759405B2, “Stevia extract or steviol for hair care” (DSM IP Assets B.V., priority 2009, dated 2014).
Entries after “also recorded” stand apart in the source; their conditions may differ.

Assays:
Human hair follicles [1] = experiment: Growth of human hair follicle (length measurements); assay type: cell-based
Experimental: (§1) Human hair follicles were obtained from human skin fragments (obtained by plastic surgery) and grown in supplemented William's E medium supplemented with penicillin/streptomycin, L-glutamine (2 mM/L), insulin (10 μg/mL and hydrocortisone (8 nM/L). Hair follicle growth was assessed via length measurements (days 0, 4, and 7). Triiodothyronine (T3, 30 μM/L) was used as positive control. The effect of steviol (at 0.625-5 μg/mL) was tested in parallel. On day 7, RNA was extracted from hair follicles that had been subjected to different treatments (control, T3, steviol). RNA was processed for Affymetrix® DNA microarray analysis in order to identify effects of compounds on gene expression. Where appropriate, RNA expression levels were further quantified by RT-PCR using the ABI 7900 Taqman instrumentation.

Human hair follicles [2] = experiment: Gene expression in human hair follicles by DNA microarray analysis; assay type: cell-based
Experimental: as §1, with “instrumentation. […] Global effects of steviol on gene expression were determined by transcriptomics i.e. DNA microarray analysis. The obtained data were processed with Genedata software tools. […] Thus another aspect of this invention is a method of up-regulating at least one of the genes listed in Table 3 comprising administering steviol and observing a hair growth effect.” for “instrumentation.”

whole mouse skin = experiment: Gene expression in whole mouse skin by quantitative RT-PCR after dietary supplementation; assay type: in vivo, mice; conditions: eight weeks
Experimental: The effect of steviol on gene expression was also analysed in whole mouse skin (also containing hair follicles). To this aim, mice were fed a normal diet or a diet supplemented with steviol (see also relevant data above). After eight weeks of supplementation, mice were sacrificed and skin was isolated and freed from hair. Quantitative RT-PCR was performed for selected genes using the same technology as described for hair follicles (see above). Remarkably, we identified changes in expression levels of some genes that are involved in skin physiology and homeostasis.

human hair follicle = experiment: mRNA level of marker genes in human hair follicle by RT-PCR; assay type: cell-based
Experimental: as §1, with “The effect of steviol (at 0.625-5 μg/mL) was tested in parallel.” left out, “instrumentation. […] The mRNA level of some marker genes involved in growth and/or differentiation of cells in the skin and in hair follicle was further determined by RT-PCR and is shown in Table 4.” for “instrumentation.”

aged C57B1/6J mice = experiment: Chronic steviol treatment, subjective rating of fur and skin condition pre- and post-treatment; assay type: in vivo; conditions: 120 mg/kg/d in diet, 6 weeks, pre- vs post-treatment
Experimental: FIG. 2 Effects of chronic steviol treatment (120 mg/kg, p.o., 6 weeks) on (a) fur colour and (b) hair loss in aged C57B1/6J mice. […] [table] Female, aged, C57B1/6J mice (22-24 months of age) were assessed for their fur quality at the start and end of a six-week study. Prior to commencement of treatment, photographs were taken of all mice whilst under light anaesthesia (2.2-2.4% isofluorane). Mice were then fed either placebo diet or diet supplemented with steviol (120 mg/kg/d) for six weeks. At the end of the six week treatment phase, mice were again anaesthetised and further photographs were taken. Eleven participants with extensive experience of performing experimental studies using mice were asked to complete the same questionnaire (see Table 1), to enable subjective rating of a number of parameters of fur quality and of the appearance of skin wounds, by assessing the photographs taken before and after treatment. Statistical analyses were performed using Prism 5 (GraphPad Software, La Jolla, Calif., USA) and comprised two-way ANOVA (test factors: Time and Treatment), followed by Bonferroni post-hoc tests, where appropriate.

C=C1C[C@@]23CC[C@H]4[C@@](C)(CCC[C@@]4(C)C(=O)O)[C@@H]2CC[C@]1(O)C3 [Steviol, steviol]
Growth (% of control) (Human hair follicles [1]; 0.625 μg/mL): 122 % of control
Growth (% of control) (Human hair follicles [1]; 1.25 μg/mL): 121 % of control
Growth (% of control) (Human hair follicles [1]; 2.5 μg/mL): 113 % of control
Growth (% of control) (Human hair follicles [1]; 5 μg/mL): 117 % of control
elongation of hair follicles (Human hair follicles [1]; 0.625-5 μg/mL): dose-dependently favoured the elongation of hair follicles
Ratio of steviol-treated/untreated: CASP8 and FADD-like apoptosis regulator (Human hair follicles [2]; day 7, microarray): 2.58
Ratio of steviol-treated/untreated: Chemokine (C-X-C motif) ligand 12 (stromal cell-derived factor 1) (Human hair follicles [2]; day 7, microarray): 2.22
Ratio of steviol-treated/untreated: Collagen, type IV, alpha 6 (Human hair follicles [2]; day 7, microarray): 2.04
Ratio of steviol-treated/untreated: Fibroblast growth factor 7 (keratinocyte growth factor) (Human hair follicles [2]; day 7, microarray): 2.91
Ratio of steviol-treated/untreated: Insulin-like growth factor 1 receptor (Human hair follicles [2]; day 7, microarray): 2.00
Ratio of steviol-treated/untreated: Integrin, alpha 6 (Human hair follicles [2]; day 7, microarray): 2.15
Ratio of steviol-treated/untreated: TIMP metallopeptidase inhibitor 3 (Human hair follicles [2]; day 7, microarray): 2.32
Ratio of steviol-treated/untreated: Topoisomerase (DNA) II alpha 170 kDa (Human hair follicles [2]; day 7, microarray): 2.45
Ratio of steviol-treated/untreated: Transmembrane protein with EGF-like and two follistatin-like domains 2 (Human hair follicles [2]; day 7, microarray): 3.10
biological pathways whose gene expression is modulated (Human hair follicles [2]; microarray, Genedata pathway mapping): modulated gene expression of the pathways of epidermal development, ectoderm development and keratinocyte differentiation with a high statistical significance
% of control (based on fold-change): CXC10 (whole mouse skin): 132 ± 50 % of control
% of control (based on fold-change): IL-6 (whole mouse skin): 130 ± 31 % of control
% of control (based on fold-change): MMP-8 (whole mouse skin): 73 ± 23 % of control
% of control (based on fold-change): MMP-13 (whole mouse skin): 53 ± 9 % of control
% of control (based on fold-change): PPAR-δ (whole mouse skin): 60 ± 37 % of control
Fold changes (versus control): Integrin alpha-6 (human hair follicle; 0.625 μg/mL): 1.62 ± 0.06 fold
Fold changes (versus control): COX-2 (human hair follicle; 1.25 μg/mL): 0.46 ± 0.17 fold
Fold changes (versus control): HO-1 (human hair follicle; 1.25 μg/mL): 0.64 ± 0.08 fold
Fold changes (versus control): Involucrin (human hair follicle; 1.25 μg/mL): 0.51 ± 0.22 fold
Fold changes (versus control): Keratin 6 (human hair follicle; 10 μg/mL): 1.33 ± 0.11 fold
fur colour (greying; subjective rating score) (aged C57B1/6J mice): significantly improved hair colour (i.e. reduced greying); also recorded: significantly improved fur colour
hair loss (subjective rating score) (aged C57B1/6J mice): significantly improved (i.e. reduced) hair loss
hair loss (subjective rating score) (aged C57B1/6J mice; listed as steviol): significant reduction of hair loss
